Measured values published in patent US8012949B2, “Bisphosphonate compounds and methods with enhanced potency for multiple targets including FPPS, GGPPS, and DPPS” (The Board of Trustees of the University of Illinois, priority 2004, dated 2011).
Read-outs that look alike come from different tables or passages of the source.

What was measured:
[1] = molecular target: T1, human FPPS (Homo sapiens, UniProt P14324); assay: human FPPS enzyme inhibition; assay type: biochemical; details: for IC50: Table 9, read-out: H. sapiens FPPS IC50; for FPPS pKi (M) / Ki: Table 1, experimental; for Ki: read-out: FPPS pKi (converted)
T1 construct: made in house
T1 sequence (P14324 1-419): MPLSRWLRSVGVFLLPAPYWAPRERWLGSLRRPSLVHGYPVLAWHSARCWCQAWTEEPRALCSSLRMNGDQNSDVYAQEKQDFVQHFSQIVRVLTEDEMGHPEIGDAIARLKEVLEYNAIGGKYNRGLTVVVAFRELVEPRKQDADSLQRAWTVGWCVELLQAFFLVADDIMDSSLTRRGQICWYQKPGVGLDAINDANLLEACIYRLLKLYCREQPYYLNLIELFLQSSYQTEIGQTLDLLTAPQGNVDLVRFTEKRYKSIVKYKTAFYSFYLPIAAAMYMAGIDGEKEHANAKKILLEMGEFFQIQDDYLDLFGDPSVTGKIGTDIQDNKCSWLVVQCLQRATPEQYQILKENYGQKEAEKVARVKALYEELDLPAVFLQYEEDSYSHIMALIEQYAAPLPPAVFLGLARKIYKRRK
Excerpt: (§1) To test our polypharmaceutical hypothesis, we expressed three enzymes: human FPPS, GGPPS and DPPS, and tested each for their inhibition by a series of bisphosphonates.

[2] = test system: MCF-7 (breast adenocarcinoma); assay: MCF-7 cell growth inhibition (MTT), incl. FOH/GGOH rescue; assay type: cell-based, human; details: for IC50: Homo sapiens, MCF7
Excerpt: (§2) Cell Growth Inhibition Assays. […] A broth microdilution method was used to determine IC50 values for growth inhibition by each bisphosphonate. […] NBPs were typically initially dissolved in H2O (0.01 M) while NNBPs were typically dissolved in DMSO (0.01 M).
GraphPad PRISM® version 4.0 software for windows (GraphPad Software Inc., San Diego, Calif., www.graphpad.com) was used to fit the data to a rectangular hyperbolic function: I=(ImaxC)/(IC50+C);
For the “rescue” experiments, stock solutions of FOH or GGOH were prepared (in ethanol) and the requisite amounts added to the incubation media to produce a fixed 20 μM concentration.

[3] = test system: Vγ2Vδ2 T cells; assay: γδ T cell activation (TNF-α release and proliferation); assay type: cell-based, human; details: Table 2, -log10(value, M); for EC50: Homo sapiens, T-cell, read-out: γδ T Cell Avg pED50 (converted)
Protocol: γδ T Cell Assays. Vγ2Vδ2 T cell TNF-α release and proliferation were performed basically as described previously^1. Briefly, to measure bioactivity for Vγ2Vδ2 T cells, the CD4^+ JN.24, CD4^+ HF.2, CD8αα^+ 12G12, or the CD4^−8^− HD.108 Vγ2Vδ2 T cell clones were stimulated with phosphoantigens in the presence of CP.EBV (an EBV transformed B cell line) for CD4^+ clones or Va-2 (a transformed fibroblast) for CD8αα^+ and CD4^−8^− clones. CP.EBV and Va-2 were fixed with 0.05% glutaraldehyde (EM grade, Sigma, Mo.) for use as APCs. […] Curve fitting minima for each experiment (e.g. TNF-α release from JN.24 cells) were determined using the Global Fitting technique, as implemented in Prism 4.0. Curve fitting maxima were optimized for each individual compound without the use of any constraints.

[4] = test system: T. brucei FPPS; assay: T. brucei FPPS inhibition; assay type: biochemical, Trypanosoma brucei; details: Table 9
[5] = molecular target: T2, human DPPS (Homo sapiens, UniProt Q5T2R2); assay: human DPPS enzyme inhibition; assay type: biochemical; details: Table 1, experimental; for Ki: read-out: DPPS_pKi (converted)
T2 construct: made in house
T2 sequence (Q5T2R2 1-415): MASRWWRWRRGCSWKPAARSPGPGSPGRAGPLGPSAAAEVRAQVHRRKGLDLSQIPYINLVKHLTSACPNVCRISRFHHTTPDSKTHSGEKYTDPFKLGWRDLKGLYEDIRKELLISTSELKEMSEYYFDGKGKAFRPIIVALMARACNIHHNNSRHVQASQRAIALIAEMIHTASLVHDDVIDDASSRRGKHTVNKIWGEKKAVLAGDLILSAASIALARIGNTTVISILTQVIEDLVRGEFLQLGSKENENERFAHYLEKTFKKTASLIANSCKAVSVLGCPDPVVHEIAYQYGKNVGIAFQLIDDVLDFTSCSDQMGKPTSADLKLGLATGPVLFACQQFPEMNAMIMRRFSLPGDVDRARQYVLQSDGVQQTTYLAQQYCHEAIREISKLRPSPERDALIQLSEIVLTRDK
T2 sequence (Q86YH6 1-399 partner): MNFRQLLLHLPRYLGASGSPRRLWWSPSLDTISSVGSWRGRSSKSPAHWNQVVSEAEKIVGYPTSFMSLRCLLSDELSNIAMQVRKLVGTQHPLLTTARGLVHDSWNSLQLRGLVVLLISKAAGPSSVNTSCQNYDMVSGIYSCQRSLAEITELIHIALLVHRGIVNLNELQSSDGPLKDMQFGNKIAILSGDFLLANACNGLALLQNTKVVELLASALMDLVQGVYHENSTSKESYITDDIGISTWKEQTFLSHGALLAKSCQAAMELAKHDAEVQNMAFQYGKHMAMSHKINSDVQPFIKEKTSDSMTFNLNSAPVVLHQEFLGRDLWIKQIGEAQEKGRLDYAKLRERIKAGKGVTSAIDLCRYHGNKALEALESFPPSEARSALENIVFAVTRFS
Excerpt: as §1

[6] = test system: SF-268 (central nervous system glioblastoma); assay: SF-268 cell growth inhibition (MTT); assay type: cell-based, human; details: Table 1, experimental; for IC50: Homo sapiens, SF-268, read-out: SF-268 pIC50 (converted)
Excerpt: as §2
(§3) GraphPad PRISM® version 4.0 software for windows (GraphPad Software Inc., San Diego, Calif., www.graphpad.com) was used to fit the data to a rectangular hyperbolic function: I=(ImaxC)/(IC50+C); […]

[7] = test system: NCI-H460 (lung large cell); assay: NCI-H460 cell growth inhibition (MTT); assay type: cell-based, human; details: Table 1, experimental; for IC50: Homo sapiens, NCI-H460, read-out: NCI-H460 pIC50 (converted)
Excerpt: as §2, §3

[8] = molecular target: T3, human recombinant geranylgeranyl diphosphate synthase (hGGPPS) (Homo sapiens, UniProt O95749); assay: Human recombinant GGPPS inhibition (radiometric assay); assay type: biochemical; details: Table 1, experimental; for Ki: read-out: GGPPS pKi (converted)
T3 construct: made in house
T3 sequence (O95749 1-300): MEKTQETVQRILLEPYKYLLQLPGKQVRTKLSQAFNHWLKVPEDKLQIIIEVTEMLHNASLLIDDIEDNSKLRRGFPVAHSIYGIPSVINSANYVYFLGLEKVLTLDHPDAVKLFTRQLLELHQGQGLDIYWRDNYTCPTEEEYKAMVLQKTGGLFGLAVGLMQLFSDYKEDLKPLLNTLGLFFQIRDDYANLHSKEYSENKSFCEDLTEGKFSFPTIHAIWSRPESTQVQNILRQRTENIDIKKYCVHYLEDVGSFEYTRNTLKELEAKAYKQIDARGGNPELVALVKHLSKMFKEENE
Protocol: as §1
Human recombinant GGPPS inhibition. The purification of human recombinant geranylgeranyl diphosphate synthase (hGGPPS) followed the protocol reported previously^2. GGPPS inhibition by bisphosphonates was determined using the radiometric assay reported previously^2 with slight modification. […] IPP and incubated at 37° C. for 20 min. The reaction was terminated by the addition of 75 μL of HCl/MeOH. Following a second 20 min incubation at 37° C. to effectively hydrolyze the allylic pyrophosphates, the reaction mixtures were neutralized by the addition of 75 μL of 6 N NaOH and extracted with 500 μL of hexane. 200 μL of the organic phase was transferred to a scintillation vial for counting. The IC50 values were obtained by fitting the data to the dose-response curve in Origin 6.1 (OriginLab Corp., Northampton, Mass., www.OriginLab.com).

[9] = Table 1, experimental, read-out: MCF-7 pIC50 (converted)
[10] = Table 2, -log10(value, M), read-out: MCF-7 Cell pIC50 (converted)

| Compound | MCF-7 Cell pIC50 (M) ([2]; Table 2, -log10(value, M)) | γδ T Cell Avg pED50 (M) [3] | FPPS pKi (M) [1] | DPPS pKi [5] | SF-268 pIC50 (M) [6] | MCF-7 pIC50 (M) ([2]; Table 1, experimental) | NCI-H460 pIC50 (M) [7] | other results |
| --- | --- | --- | --- | --- | --- | --- | --- | --- |
| C[S+](C)CCC(O)(P(=O)([O-])O)P(=O)(O)O (centres unmarked) [BPH-540] | 2.68 M | 3.59 M |  |  |  |  |  | IC50 [1]: 9000 nM; IC50 [4]: 11300 nM |
| CC(C)CCCC(C)CCOc1ccc[n+](CC(P(=O)([O-])O)P(=O)(O)O)c1 (centres unmarked) [BPH-728] | 5.59 M | 5.28 M | 6.8 M | 6.3 | 4.9 M | 4.5 M | 4.6 M |  |
| O=P([O-])(O)C(O)(C[n+]1cccc(-c2c[nH]cn2)c1)P(=O)(O)O (centres unmarked) [BPH-679] | 4.65 M | 3.34 M | 8.2 M | 6 | 4.5 M | 4.4 M | 4.3 M | GGPPS pKi (M) [8]: 5.0 M |
| CCCCCCCOc1ccc[n+](CC(P(=O)([O-])O)P(=O)(O)O)c1 (centres unmarked) [BPH-722] |  |  |  |  |  |  |  | Ki [8]: 63.1 nM; Ki [5]: 6.31 nM; IC50 [6]: 1000 nM; IC50 [2, 9]: 2510 nM; IC50 [2, 10]: 468 nM; IC50 [7]: 501 nM; EC50 [3]: 27500 nM |
| C[As+](C)(C)CC(O)(P(=O)([O-])O)P(=O)(O)O (centres unmarked) [BPH-560] | 2.71 M | 3.37 M |  |  |  |  |  | IC50 [1]: 1130 nM; IC50 [4]: 275000 nM |
| CCCCCCCCCCCCCC[S+](C)CC(P(=O)([O-])O)P(=O)(O)O (centres unmarked) [BPH-694] | 6.69 M | 6.20 M | 7.1 M | 6.6 | 5.9 M | 4.9 M | 6.0 M |  |
| CCCCCCCCCCc1ccc[n+](CC(P(=O)([O-])O)P(=O)(O)O)c1 (centres unmarked) [BPH-638] |  |  |  |  |  |  |  | Ki [1]: 15.8 nM; Ki [5]: 501 nM; IC50 [6]: 200 nM; IC50 [2, 9]: 158 nM; IC50 [2, 10]: 170 nM; IC50 [7]: 158 nM; EC50 [3]: 1700 nM |
| C[P+](C)(C)CC(O)(P(=O)([O-])O)P(=O)(O)O (centres unmarked) [BPH-536] | 3.24 M | 3.72 M |  |  |  |  |  | IC50 [1]: 12100 nM; IC50 [4]: 26100 nM |
| CCCCCCCCc1ccc[n+](CC(P(=O)([O-])O)P(=O)(O)O)c1 (centres unmarked) [BPH-637] |  |  |  |  |  |  |  | Ki [8]: 39.8 nM; Ki [5]: 501 nM; IC50 [6]: 1260 nM; IC50 [2, 9]: 251 nM; IC50 [2, 10]: 219 nM; IC50 [7]: 2000 nM; EC50 [3]: 12600 nM |
| O=P([O-])(O)C(O)(C[n+]1ccccc1)P(=O)(O)O (centres unmarked) [BPH-278] | 4.10 M | 4.20 M | 8.6 M | 7.2 | 4.3 M | 4.1 M | 4.1 M |  |
| CCOCCOCCCc1ccc[n+](CC(P(=O)([O-])O)P(=O)(O)O)c1 (centres unmarked) [BPH-727] | 3.62 M | 3.77 M | 8.2 M | 6.8 | 3.7 M | 3.5 M | 3.5 M |  |
| O=P([O-])(O)C(C[n+]1cccc(Br)c1)P(=O)(O)O (centres unmarked) [BPH-483] | 3.84 M | 4.04 M | 8.5 M | 6.8 | 4.0 M | 4.0 M | 4.1 M |  |
| O=P([O-])(O)C(C[n+]1cccc(-c2ccccc2)c1)P(=O)(O)O (centres unmarked) [BPH-472] | 4.46 M | 4.07 M | 8.6 M | 7.1 | 4.3 M | 4.4 M | 4.3 M | GGPPS pKi (M) [8]: 6.6 M |
| CCCCCCCCc1cc[n+](CC(P(=O)([O-])O)P(=O)(O)O)cc1 (centres unmarked) [BPH-717] |  |  |  |  |  |  |  | Ki [1]: 20 nM; Ki [5]: 79.4 nM; IC50 [6]: 631 nM; IC50 [2, 9]: 501 nM; IC50 [7]: 631 nM |
| O=P([O-])(O)C(O)(C[n+]1cccc(-c2ccccc2)c1)P(=O)(O)O (centres unmarked) [BPH-300] |  |  | 8.3 M | 6.9 | 4.5 M | 4.4 M | 4.5 M |  |
| Cc1ccc[n+](CC(P(=O)([O-])O)P(=O)(O)O)c1 (centres unmarked) [BPH-474] | 4.42 M | 3.85 M | 8.4 M | 6.9 | 4.1 M | 4.1 M | 4.2 M |  |
| C[S+](C)CC(O)(P(=O)(O)O)P(=O)(O)O [BPH-527, (2-Hydroxy-2,2-bis-phosphono-ethyl)-dimethyl-sulfonium] | 3.36 M | 3.87 M |  |  |  |  |  | IC50 [1]: 1030 nM; IC50 [4]: 780 nM |
| CCCCC[S+](C)CC(P(=O)([O-])O)P(=O)(O)O (centres unmarked) [BPH-684] |  |  |  |  |  |  |  | Ki [1]: 10 nM; Ki [8]: 251 nM; Ki [5]: 100 nM; IC50 [6]: 200000 nM; IC50 [2, 9]: 251000 nM; IC50 [2, 10]: 129000 nM; IC50 [7]: 158000 nM; EC50 [3]: 126000 nM |
